Read-outs that look alike come from different tables or passages of the source. Starred links: 1 amine or outer side, 2 acyl side, 3 side chain; linkers in the order of their positions; H or OH if unused. Non-standard residues stand in square brackets, D forms with d. Residues, ends and D or L forms follow the SMILES beside them. Groups on a side chain read outwards from the residue. No end group written: not given here. *: point of attachment. d(γGlu) = O=C(O)[C@@H](CCC(=O)[*:2])N[*:1]; C18 diacid = O=C(O)CCCCCCCCCCCCCCCCC(=O)*; AEEA = NCCOCCOCC(=O)O; Aib = CC(C)(N)C(=O)O
Columns and labels:
[1] = design: species or system DIO mice; details: mouse, in vivo
Source text: (§1) […] high-fat diet-induced obese (DIO) mice were weighed. When the average weight of the mice is about 40-45 g, they are randomly assigned to Groups G2-G11 based on the body weight of the mice, with 8 mice in each group. Eight C57BL/6 mice fed with normal diet were assigned to Group G1. Each mouse in all groups was housed in a separate cage for 2-3 days to adapt to environment before grouping. During this period, the mice were adaptively caught and administrated with blank solvent daily. The day of grouping was Day 0. The Vehicle group was administrated with blank solvent (propylene glycol: 14.0 mg/mL and disodium hydrogen phosphate: 1.132 mg/mL) at pH 7.4; s.c. means subcutaneous injection; the frequency of administration QD means once a day. Such expressions may be applied to the following Examples.
Based on the assay in Example 11, the cumulative water intake of the mice was also statistically calculated and compared with the water intake of the mice in the Tirzepatide treatment group.

[2] = molecular target: hGLP-1R (Homo sapiens, UniProt P43220); assay: Cell agonistic activity at GLP-1 receptor (Example 7); type: cell-based; details: read-out: hGLP-1R EC50
hGLP-1R, sequence (P43220 24-463): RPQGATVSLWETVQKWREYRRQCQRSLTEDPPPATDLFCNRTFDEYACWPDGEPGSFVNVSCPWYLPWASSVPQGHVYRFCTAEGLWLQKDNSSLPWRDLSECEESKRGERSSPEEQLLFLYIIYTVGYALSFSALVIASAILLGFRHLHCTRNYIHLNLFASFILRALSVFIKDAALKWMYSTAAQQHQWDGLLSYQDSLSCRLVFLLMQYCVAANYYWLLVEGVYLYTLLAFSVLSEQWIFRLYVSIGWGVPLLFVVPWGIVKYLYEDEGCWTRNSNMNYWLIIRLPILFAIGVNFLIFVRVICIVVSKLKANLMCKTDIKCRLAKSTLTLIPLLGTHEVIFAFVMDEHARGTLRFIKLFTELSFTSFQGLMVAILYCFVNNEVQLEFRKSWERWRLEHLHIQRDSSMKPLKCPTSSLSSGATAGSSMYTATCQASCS

[3] = molecular target: T1, hGIPR (Homo sapiens, UniProt P48546); assay: HTRF cAMP cell agonistic activity assay, HEK293 stably expressing GIPR (Example 7); type: cell-based
T1 construct: expressed in transfected cells; host or cells: HEK293, stably transduced
T1 sequence (P48546 22-466): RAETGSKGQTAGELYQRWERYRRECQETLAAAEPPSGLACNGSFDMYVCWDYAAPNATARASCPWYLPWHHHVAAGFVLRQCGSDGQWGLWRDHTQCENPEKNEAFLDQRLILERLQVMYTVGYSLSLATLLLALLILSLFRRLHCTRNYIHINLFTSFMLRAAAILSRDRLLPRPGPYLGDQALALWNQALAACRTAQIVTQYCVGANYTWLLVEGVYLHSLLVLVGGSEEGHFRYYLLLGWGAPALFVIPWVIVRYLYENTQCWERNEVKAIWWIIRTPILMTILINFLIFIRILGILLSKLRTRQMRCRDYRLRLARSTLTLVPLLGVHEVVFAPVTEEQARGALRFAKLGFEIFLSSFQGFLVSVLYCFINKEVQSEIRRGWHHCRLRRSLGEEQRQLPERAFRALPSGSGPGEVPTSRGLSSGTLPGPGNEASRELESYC
Method: The agonistic activity of the compounds on the receptor was determined using the HTRF kit (purchased from Perkin Elmer). All reagents in the kit were allowed to equilibrate to room temperature before use. A 1× Stimulation Buffer was formulated according to the instruction in the kit for use. […] GIPR cells were digested with trypsin, centrifuged to remove the culture medium. The cells were resuspended in the 1× Stimulation Buffer. After being counted, 9 μL cell dilutions were inoculated into a 384-well plate at 1000 cells/well. 1 μL the 10× compound diluted in step 2 was taken and added to the corresponding test well, wherein 1 μL the 10× initial concentration positive compound was added to the PC hole (Min value), and 1 μL the 10×DMSO buffer (1%) was added to the VC hole (Max value). The plate was centrifuged and incubated at 37 °C for 30 minutes. Eu-cAMP was diluted with Detection buffer to a working concentration, and the diluent was added into the corresponding test well at 5 μL/well. ULight-anti-Camp was diluted with Detection buffer to a working concentration, and the diluent was added into the corresponding test well at 5 μL/well. After being centrifuged, the plate was incubated at room temperature for 1 hour. […] The nonlinear regression method of GraphPad Prism software was used for curve fitting and EC50 calculation.

[4] = molecular target: T2, human GLP-1 receptor (human, UniProt P43220 24-463); assay: cell-based or functional assay
[5] = molecular target: human GIP receptor (glucose-dependent insulinotropic peptide receptor, GIPR) (human) (UniProt P48546); assay: cell-based or functional assay
[6] = Body weight of DIO mice, high dosage, 21 days (Example 12); type: in vivo; details: 30 nmol/kg s.c. QD
Source text: 72 diet-induced obese (DIO) mice were weighed. (Screening and Grouping) When the average weight of the mice is about 40-45 g, they are randomly assigned to Groups G2-G11 based on the body weights of the mice, with 8 mice in each group. Eight C57BL/6 mice fed with normal diet were assigned to Group G1. Each mouse in all groups was housed in a separate cage for 2-3 days to adapt to environment before grouping. During this period, the mice were adaptively caught and administrated with blank solvent (propylene glycol: 14.0 mg/mL and disodium hydrogen phosphate: 1.132 mg/mL, pH 7.4) daily. The day of grouping was Day 0.

[7] = Body weight of DIO mice, 25 days, different administration ratios (Example 11); type: in vivo; details: 30 nmol/kg s.c. QD, Day 25
Source text: as §1
(§2) The animals were weighed before grouping (i.e. before the first administration) and every 3 days after grouping. At the end of the experiment (Day 25), the mice were fasted for 4 hours. The livers of all mice in Groups G1-G8 were collected and weighed. About 20 mg of the livers were homogenized. The homogenate was taken to measure total cholesterol (TC) and […] (TG).

[8] = Body weight of DIO mice after 28 days of administration (Example 10); type: in vivo, DIO male mice; details: 2 nmol/kg s.c. QD
Method: Eight or more C57BL/6J male mice at an age of 16 to 18 weeks and fifty-six or more DIO male mice with obesity induced by high-fat feed at an age of 16 to 18 weeks were selected. After entering the animal facility, all mice were adaptively fed for 3 days or more. They were required to adapt for 3 days before grouping. All mice were measured for body weight, body fat ratio and fasting blood glucose. Fifty-six DIO mice were randomly grouped primarily based on body weight and fasting blood glucose and secondarily based on body fat ratio. 8 C57BL/6J mice of close weekly age were assigned into the healthy control group. Each mouse in all groups was housed in a separate cage for 2-3 days to adapt to environment before grouping. During the period, the mice were adaptively caught and administrated with blank solvent daily. The day of grouping was Day 0, and the administration was continued for 28 days. […]
The body weight of each mouse was recorded every day according to the frequency of administration. Postprandial blood glucose was measured every 3 days, fasting blood glucose was measured every 7 days, and IPGTT (Intraperitoneal Glucose Tolerance Tests) was conducted once before the end point. […]

[9] = Liver total cholesterol (TC) and triglyceride (TG) in DIO mice (Example 11); type: in vivo; details: 30 nmol/kg s.c. QD, Day 25, fasted 4 hours
Source text: as §1, §2

[10] = Fasting blood glucose in STZ type 2 diabetic mice after 7 days (Example 9); type: in vivo; details: for Fasting Blood Glucose Value, 0 day: 0 day (baseline)
Source text: Male mice were allowed to adapt to new environment for 1 week before treatment. The mice were divided into several groups (n=6-8/group). The individual was screened and divided into groups based on body weight and fasting blood glucose. Grouping was done by screening in a balanced manner, so as to exclude individuals that were too large or too small. A blank buffer or a test compound was subcutaneously administrated to the animals once a day. The individuals in the body weight group were weighted daily before administration, while the individuals in the fasting blood glucose group (fasting for 4 hours) were measured for their blood glucose 7 days after administration.

[11] = molecular target: T2, human GLP-1 receptor; assay: cell-based or functional assay; remark: listed apart in the source
[12] = molecular target: T3, human GIP receptor (glucose-dependent insulinotropic peptide receptor, GIPR) (human, UniProt P48546 22-466); assay: cell-based or functional assay
T3 sequence (looked up): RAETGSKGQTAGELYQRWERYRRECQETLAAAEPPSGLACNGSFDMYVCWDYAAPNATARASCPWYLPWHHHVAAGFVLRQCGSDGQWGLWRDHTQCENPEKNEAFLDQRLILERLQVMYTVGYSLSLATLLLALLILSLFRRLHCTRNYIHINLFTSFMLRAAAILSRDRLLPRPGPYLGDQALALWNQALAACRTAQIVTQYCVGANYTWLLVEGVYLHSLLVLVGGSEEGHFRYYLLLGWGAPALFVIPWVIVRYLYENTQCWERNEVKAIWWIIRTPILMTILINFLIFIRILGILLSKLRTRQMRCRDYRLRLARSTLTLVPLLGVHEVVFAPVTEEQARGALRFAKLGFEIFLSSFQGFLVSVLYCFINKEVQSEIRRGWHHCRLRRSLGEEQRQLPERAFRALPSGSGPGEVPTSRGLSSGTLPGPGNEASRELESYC

[13] = 2.4 nmol/kg s.c. once a day, 7 days
[14] = 14.4 nmol/kg s.c. once a day, 7 days

Molecule: CC[C@H](C)[C@H](NC(=O)[C@H](CC(C)C)NC(=O)[C@H](Cc1c[nH]c2ccccc12)NC(=O)[C@H](CCC(N)=O)NC(=O)[C@@H](NC(=O)[C@H](Cc1ccccc1)NC(=O)[C@H](C)NC(=O)[C@H](CCCCNC(=O)COCCOCCNC(=O)COCCOCCNC(=O)CC[C@H](NC(=O)CCCCCCCCCCCCCCCCCCC(=O)O)C(=O)O)NC(=O)[C@H](CCC(N)=O)NC(=O)[C@H](C)NC(=O)[C@@H](NC(=O)[C@H](CCCCN)NC(=O)[C@H](CC(=O)O)NC(=O)[C@H](CC(C)C)NC(=O)C(C)(C)NC(=O)[C@@H](NC(=O)[C@H](CO)NC(=O)[C@H](Cc1ccc(O)cc1)NC(=O)[C@H](CC(=O)O)NC(=O)[C@H](CO)NC(=O)[C@@H](NC(=O)[C@H](Cc1ccccc1)NC(=O)[C@@H](NC(=O)CNC(=O)[C@H](CCC(=O)O)NC(=O)C(C)(C)NC(=O)[C@@H](N)Cc1ccc(O)cc1)[C@@H](C)O)[C@@H](C)O)[C@@H](C)CC)[C@@H](C)CC)C(C)C)C(=O)N[C@@H](C)C(=O)NCC(=O)NCC(=O)N1CCC[C@H]1C(=O)N[C@@H](CO)C(=O)N[C@@H](CO)C(=O)NCC(=O)N[C@@H](C)C(=O)N1CCC[C@H]1C(=O)N1CCC[C@H]1C(=O)N1CCC[C@H]1C(=O)N[C@@H](CO)C(N)=O [Tirzepatide]
- water intake / adverse responses [1]: significantly inhibited

Molecule: CC[C@H](C)[C@H](NC(=O)[C@H](CO)NC(=O)[C@H](Cc1ccc(O)cc1)NC(=O)[C@H](CC(=O)O)NC(=O)[C@H](CO)NC(=O)[C@@H](NC(=O)[C@H](Cc1ccccc1)NC(=O)[C@@H](NC(=O)CNC(=O)[C@H](CCC(=O)O)NC(=O)C(C)(C)NC(=O)[C@@H](N)Cc1ccc(O)cc1)[C@@H](C)O)[C@@H](C)CC)C(=O)N[C@@H](C)C(=O)N[C@@H](CC(C)C)C(=O)N[C@@H](CC(=O)O)C(=O)N[C@@H](CCCNC(=N)N)C(=O)N[C@H](C(=O)N[C@@H](Cc1c[nH]cn1)C(=O)N[C@@H](CCC(N)=O)C(=O)N[C@@H](CCC(N)=O)C(=O)N[C@@H](CC(=O)O)C(=O)N[C@@H](Cc1ccccc1)C(=O)N[C@H](C(=O)N[C@@H](CC(N)=O)C(=O)N[C@@H](Cc1c[nH]c2ccccc12)C(=O)N[C@@H](CC(C)C)C(=O)N[C@@H](CC(C)C)C(=O)N[C@@H](C)C(=O)N[C@@H](CCC(N)=O)C(=O)N[C@@H](CCCCNC(=O)COCCOCCNC(=O)COCCOCCNC(=O)CC[C@@H](NC(=O)CCCCCCCCCCCCCCCCC(=O)O)C(=O)O)C(=O)NCC(=O)O)C(C)C)[C@@H](C)CC [Peptide 14, N-{ε-30}-18-{[(23R)-23-carboxyl-2,11,20-trioxo-10,19-diaza-4,7,13,16-tetraoxatricosyl-23-yl]amino}-18-oxooctadecanoic acid acetyl-[Aib2, L14, R16]-hGIP(1-31)] (H-Y[Aib]EGTFISDYSIALDRIHQQDFVNWLLAQK([AEEA-AEEA-d(γGlu)-C18 diacid])G-OH)
- EC50 [2]: > 100 pM
- EC50 [3]: 3.5 pM

Molecule: hGLP-1 (7-37) (from UniProt P01275 21-180) (ligand)
- EC50(pM), cell agonistic activity [4]: 7.01 pM
- EC50(pM), cell agonistic activity (cAMP, HTRF) [5]: > 100 pM

Molecule: N^6,26-{18-[N-(17-carboxylheptadecanoyl)-L-γ-glutamyl]-10-oxo-3,6,12,15-tetraoxa-9,18-diazaoctadecanoyl}-[8-(2-amino-2-propionic acid), 34-L-arginine] human glucagon-like peptide 1 (7-37) [GLP-1 Analog]
- Body Weight Reduction Percentage at Day 21 [6]: 24.7 ± 1.3 %
- Body Weight ([6]; Day 21): 33.1 ± 0.7 g
- Body Weight [7]: 31.1 ± 0.7 g
- Body Weight ([7]; listed as GLP-1 Analogs): 31.1 ± 0.7 g
- Weight [8]: 40.2 ± 1.5 g
- Weight Change [8]: −3.2%
- TC [9]: 4.89 ± 0.12 mM
- TG [9]: 0.91 ± 0.03 mM
- Fasting Blood Glucose Value, 0 day ([10]; 2.4 nmol/kg s.c. once a day): 27.17 ± 2.01 mmol/L
- Decrease of Blood Glucose, 7 days [10, 13]: 27.10 ± 13.55%
- Fasting Blood Glucose Value, 7 days [10, 13]: 19.82 ± 3.79 mmol/L
- Fasting Blood Glucose Value, 0 day ([10]; 14.4 nmol/kg s.c. once a day): 26.96 ± 1.60 mmol/L
- Decrease of Blood Glucose, 7 days [10, 14]: 49.30 ± 17.03%
- Fasting Blood Glucose Value, 7 days [10, 14]: 13.66 ± 4.94 mmol/L
- blood glucose values, single drug treatment ([10]; 2.4 and 14.4 nmol/kg, 7 days): decrease in blood glucose values

Molecule: Y[Aib]EGTFISDYSIALDRLHQQDFVNWLLAQKG (also: long-acting conjugating component, site and structure not given here) [Peptide 18 (long-acting conjugate of GIP analog, Seq ID. 18)]
- EC50(pM), cell agonistic activity [11]: > 100 pM
- EC50(pM), cell agonistic activity (cAMP, HTRF) [12]: 21.1 pM
